Patent US10617734B2, “STAT3 and ERK signal pathway inhibitor comprising mogrosides and analogs thereof” (BEIJING UNIVERSITY OF AGRICULTURE, priority 2014, dated 2020)

Legend:
[1] = test system: phosphorylated STAT3 (P-STAT3, Tyr705); assay: Western Blotting of phosphorylated STAT3 in A875 cells; assay type: cell-based, human; conditions: melanoma A875 cells, 10 μmol/L, 24 hours
Experimental: (§1) The inhibition of the STAT3 and ERK signal pathways achieved by Mogroside I E1, Mogroside II A2 and mogrol was detected by Western Blotting, specifically:
Group 2: human melanoma A875 cells (1×10^6 cells/well) were inoculated into a 6-well culture plate for staying overnight, and 0 and 10 μmol/L of Mogroside I E1, Mogroside II A2 and mogrol were added respectively, and the culture was continued for 24 hours;
(§2) After the termination of the cell culture, the culture solution was removed, and the residue was washed with PBS (0.01 mol/L, pH 7.4), and then a cell lysis solution containing protease inhibitors was added at an amount of 50 μl/well, and the mixture was placed in an ice bath for lysis at 4° C. for 30 min and then centrifuged at 14000 r/min for 10 min, and then total proteins were obtained from the supernatant;
(§3) The protein concentrations were measured with bovine serum albumin (BSA) as the standard. 50 μg of the total proteins was separated by polyacrylamide gel electrophoresis with 12% […], electrophoretically transferred to a PVDF membrane (polyvinylidene fluoride membrane), and blocked for 1 h by 5% of skim milk (containing 0.1% of Tween 20), and then antibodies p-STAT3 (Tyr705) and p-Erk1/2 as well as β-actin were added, and the primary antibody was incubated at 4° C. overnight (β-actin was used as reference in loading amount); the membrane was washed for 3 times with TBS-T, 5 min each time; secondary antibody marked by horseradish peroxidase (HRP) was added for incubation at room temperature for 1 h, the membrane was washed for 3 times with a wash solution (TBS-T), 10 min each time, and then ECL was added for incubation in dark for 5 min, and subsequently, a fluorescence imaging analyzer was used for image development and scanning analysis, and the results of Western Blotting detection are shown in FIGS. 4 to 6.

[2] = test system: phosphorylated ERK1/2 (P-ERK1/2); assay: Western Blotting of phosphorylated ERK1/2 in K562 cells; assay type: cell-based, human; conditions: leukemia cells K562, 10 μmol/L, 24 hours
Experimental: as §1
(§4) Group 3: leukemia cells K562 (1×10^6 cells/well) were inoculated into a 6-well culture plate for staying overnight, and 0 and 10 μmol/L of Mogroside I E1 Mogroside II A2 and mogrol were added respectively, and the culture was continued for 24 hours;
as §2, §3

[3] = test system: cycle regulatory protein P21; assay: Western Blotting of P21 in K562 cells; assay type: cell-based, human; conditions: leukemia cells K562, 10 μmol/L, 24 h
Experimental: (§5) The STAT3 and ERK signal pathways can regulate cyclins and apoptosis genes, and in order to verify the effects of […] and mogrol, the expression status of downstream genes of STAT3 and ERK was detected, wherein the influences of the three mogrosides and analogs thereof, i.e. Mogrol I E1, Mogrol II A2 and mogrol, on Bcl-2 and P21 proteins in the histiocytic lymphoma U937 cells, human melanoma A875 cells and leukemia cells K562 were determined, respectively.
(§6) The regulation of Bcl-2 and P21 proteins by mogrosides and analog thereof to the was detected by Western Blotting, specifically: histiocytic lymphoma U937 cells, human melanoma A875 cells and leukemia cells K562 (1×10^6 cells/well) were inoculated into a 6-well culture plate overnight, and 0 and 10 μmol/L of the mogrosides and analogs thereof were added respectively, and kept cultured for 24 h. […]
(§7) The protein concentration was measured with bovine serum albumin (BSA) as the standard. 50 μg of the total proteins were separated by polyacrylamide gel electrophoresis with 12% SDS, and electrophoretically transferred to a PVDF membrane (polyvinylidene fluoride membrane), and blocked for 1 h by 5% of skim milk (containing 0.1% of Tween 20), and then antibodies P21, Bcl-2 and β-actin were added, wherein the primary antibody was incubated at 4° C. overnight (β-actin was used as reference loading amount); the membrane was washed for 3 times with TBS-T, 5 min each time; secondary antibody marked by horseradish peroxidase (HRP) was added for incubation at room temperature for 1 h, the membrane was washed with rinse solution (TBS-T) for 3 times, 10 min each time, and then ECL was added for incubation in dark for 5 min, and subsequently, a fluorescence imaging analyzer was used for image development and scanning analysis.

[4] = test system: phosphorylated STAT3 (P-STAT3, Tyr705); assay: Western Blotting of phosphorylated STAT3 in K562 cells; assay type: cell-based, human; conditions: leukemia cells K562, 10 μmol/L, 24 hours
Experimental: as §1, §4, §2, §3

leukemia cells K562 [5] = assay: MTT colorimetric experiment, cell growth inhibition; assay type: cell-based, human; conditions: leukemia cells K562, 0.1, 1, 10, 100, 200 and 250 μmol/L, MTT after 24 h
Experimental: MTT colorimetric experiments were performed after 24 h, respectively: prior to the finish of each experiment, 15 μl of MTT solution in a concentration of 5 mg/ml was added to each well, and the culture was continued in dark at 37° C. for 4 h, then 150 μl of DMSO was added to each well and oscillating in a shaker for 10 min, and then the residue was placed in a microplate reader to detect the optical density OD) at 490 nm, and the inhibition rate was calculated according to the following formula: cell growth inhibition rate (control group OD490—test group OD490)/control group OD490×100%.

[6] = test system: human melanoma A875 cells; assay: Cell morphology, Hoechst 33258 staining, fluorescence microscope; assay type: cell-based; conditions: A875 melanoma cells, 10, 100 and 250 μmol/L, 24-hour culture
Experimental: (§8) Lymphoma U937 cells, human melanoma A875 cells and leukemia cells K562 in logarithmic growth phase were selected, and the concentrations of the cells were adjusted to 1×10^4 cells/mL, and the cells were transferred to a 6-well plate for culture, and after the 24-hour culture, drugs were added to achieve final concentrations of 0, 10, 100 and 250 μmol/L, wherein only whole medium was added to the negative control groups, while Mogroside II A2 was added to the positive control groups, after 24-hour culture, waste solution was removed, and fixing solution was added to each well for fixing for 25 min, and then the resulting mixture was washed twice, 3 min each time, and then Hoechst 33258 staining solution was added for staining in dark at room temperature for 30 min, and the cell morphology variation was observed using a fluorescence microscope.

lymphoma U937 cells = assay: as above; assay type: cell-based; conditions: lymphoma U937 cells, 10, 100 and 250 μmol/L, 24-hour culture
Experimental: as §8

leukemia cells K562 [7] = assay: Cell cycle distribution, PI staining, flow cytometer; assay type: cell-based, human; conditions: leukemia cells K562, 10 μmol/L, 24 h
Text: The influences of Mogroside I E1, Mogroside II A2 and mogrol on the cell cycle distribution of the histiocytic lymphoma U937 cells, the human melanoma A875 cells and the leukemia cells K562.
The cell cycle arrest achieved by drugs is an important approach to the inhibition of cancer cell proliferation.

[8] = test system: anti-apoptotic protein Bcl-2; assay: Western Blotting of Bcl-2 in A875 cells; assay type: cell-based; conditions: human melanoma A875 cells, 10 μmol/L, 24 h
Experimental: as §5, §6, §7

[9] = test system: cycle regulatory protein P21; assay: Western Blotting of P21 in U937 cells; assay type: cell-based; conditions: 10 μmol/L, 24 h
Experimental: as §5, §6, §7

Structure (SMILES): C[C@H](CC[C@@H](O)C(C)(C)O)[C@H]1CC[C@@]2(C)[C@@H]3CC=C4[C@@H](CC[C@H](O)C4(C)C)[C@]3(C)[C@H](O)C[C@]12C [mogrol]
- expression level of phosphorylated STAT3 (P-STAT3) [1]: significantly decreased
- expression level of phosphorylated ERK1/2 (P-ERK1/2) [2]: significantly decreased
- expression of cycle regulatory protein P21 [3]: significantly up-regulated
- expression level of phosphorylated STAT3 (P-STAT3) [4]: significantly decreased
- cell growth inhibition rate (leukemia cells K562 [5]): inhibitory effect on the proliferation
- cell morphology variation (Hoechst 33258) [6]: identical to the results of Mogroside II A2
- cell morphology variation (Hoechst 33258) (lymphoma U937 cells): identical to the results of Mogroside II A2
- cell cycle distribution (cell cycle arrest) (leukemia cells K562 [7]): arrested
- expression of anti-apoptotic protein Bcl-2 [8]: significantly down-regulated
- expression of cycle regulatory protein P21 [9]: significantly up-regulated
